Each block holds one compound with its values, some of them ahead of it.
What was measured:
breast cancer = tested on: breast cancer; set-up: method as in PMID 16392802; conditions: cited from earlier work
CDK2 = target: T1, CDK2 (Homo sapiens, UniProt P24941); conditions: read-out: CDK2 inhibitory activity IC50; cited from earlier work
T1 construct: purchased BPS Biosciences 79599

melting point: 275 to 277 °C
Compound: O=C(COc1ccccc1-c1nc2ccccc2s1)NN=C1C(=O)Nc2ccc([N+](=O)[O-])cc21 [Compound 9d, 2-(2-(Benzo[d]thiazol-2-yl)phenoxy)-N′-(5-nitro-2-oxoindolin-3-ylidene)acetohydrazide]

Compound: COc1ccc(-c2nc3cc(F)ccc3s2)cc1OC [GW 610 (VII), 2-(3,4-dimethoxyphenyl)-5-fluorobenzothiazole]
growth inhibitory activity in vitro (breast cancer): sub-nanomolar

Compound: O=C1Nc2ccccc2/C1=C1/Nc2ccccc2/C1=N\O [indirubin-3′-oxime (IV), indirubin-3′-oxime]
IC50 (CDK2): 440 nM

— PMC11396129, “Oxindole–benzothiazole hybrids as CDK2 inhibitors and anticancer agents: design, synthesis and biological evaluation” (BMC Chemistry, 2024)
